Results from ChEMBL document CHEMBL6120965, “Structure-Activity Relationship Studies Leading to the Discovery of Highly Water-Soluble and Biocompatible Acyclic Cucurbit[n]uril FY-3451 as a Universal Antagonist That Rapidly Reverses Neuromuscular Blocking Agents In Vivo” (J Med Chem, 2024).

Columns and labels:
[1] = Toxicity in Sprague-Dawley rat assessed as histological changes in liver measured at 2000 mg/kg, iv upto 14 days by H and E assay; type: organism-based; conditions: in vivo, 336 h, time < 14 day
[2] = Therapeutic index, ratio of toxicity in iv dosed Sprague-Dawley rat assessed as maximum tolerated dose to recovery of Roc/Vec/Panc-induced neuromuscular block in Sprague-Dawley rat assessed as […] ratio (TOFr) by measuring recovery time at 25 mg/kg, iv; type: organism-based; conditions: in vivo, read-out: TI
[3] = Toxicity in Sprague-Dawley rat assessed as histological changes in heart measured at 2000 mg/kg, iv upto 14 days by H and E assay; type: organism-based; conditions: in vivo, 336 h, time < 14 day
[4] = Cytotoxicity against rat H9c2 cells assessed as cell viability at 0.5 mg/ml measured after 25 hrs by CCK-8 assay; type: toxicity, cell-based; conditions: read-out: Activity
[5] = Toxicity in Sprague-Dawley rat assessed as histological changes in spleen measured at 2000 mg/kg, iv upto 14 days by H and E assay; type: organism-based; conditions: in vivo, 336 h, time < 14 day
Rattus norvegicus [6] = assay: Recovery of CisA-induced neuromuscular block in Sprague-Dawley rat assessed as […] ratio (TOFr) >= 90% by measuring recovery time at 100 mg/kg, iv (reference value: 784 seconds); type: functional
Rattus norvegicus [7] = assay: Recovery of Roc-induced neuromuscular block in Sprague-Dawley rat assessed as […] ratio (TOFr) by measuring recovery time at 12.5 mg/kg, iv (reference value: […]); type: functional
Cisatracurium = assay: Binding affinity to Cisatracurium by Competition UV-Vis titration method
Proflavine = assay: Binding affinity to Proflavine by Competition UV-Vis titration method
[8] = system: Trans-cydohexane-1,4-diartunonium dichloride; assay: Binding affinity to Trans-[…] dichloride by Competition UV-Vis titration method
[9] = Toxicity in Sprague-Dawley rat assessed as histological changes in lungs measured at 2000 mg/kg, iv upto 14 days by H and E assay; type: organism-based; conditions: in vivo, 336 h, time < 14 day
Pancuronium = assay: Binding affinity to Pancuronium by Competition UV-Vis titration method
[10] = Water solubility of the compound measured at 25 degreeC; type: physicochemical
[11] = Cytotoxicity against rat H9c2 cells assessed as cell viability measured after 25 hrs by CCK-8 assay; type: toxicity, cell-based
[12] = Toxicity in human plasma assessed as abnormality in aPTT by measuring clotting time at < 4.8 mg/kg; type: organism-based; conditions: in vivo
Rattus norvegicus [13] = assay: Recovery of CisA-induced neuromuscular block in Sprague-Dawley rat assessed as […] ratio (TOFr) by measuring recovery time at 25 mg/kg, iv (reference value: 784 seconds); type: functional
Rocuronium = assay: Binding affinity to Rocuronium by Competition UV-Vis titration method
Rattus norvegicus [14] = assay: Recovery of IMC-1-induced neuromuscular block in Sprague-Dawley rat assessed as […] ratio (TOFr) >= 90% by measuring recovery time at 10 mg/kg, iv (reference value: 4021 seconds); type: functional
Rhodamine 6G = assay: Binding affinity to Rhodamine 6G by Competition UV-Vis titration method
[15] = Toxicity in iv dosed Sprague-Dawley rat assessed as maximum tolerated dose measured upto 14 days; type: organism-based; conditions: in vivo, 336 h, time < 14 day
[16] = Toxicity in Sprague-Dawley rat assessed as histological changes in kidney measured at 2000 mg/kg, iv upto 14 days by H and E assay; type: organism-based; conditions: in vivo, 336 h, time < 14 day
Rattus norvegicus [17] = assay: Recovery of Pan-induced neuromuscular block in Sprague-Dawley rat assessed as […] ratio (TOFr) >= 90% by measuring recovery time at 25 mg/kg, iv (reference value: 3600 seconds); type: functional
Rattus norvegicus [18] = assay: Recovery of Roc-induced neuromuscular block in Sprague-Dawley rat assessed as […] ratio (TOFr) >= 90% by measuring recovery time at 25 mg/kg, iv (reference value: 597 seconds); type: functional
Vecuronium = assay: Binding affinity to Vecuronium by Competition UV-Vis titration method
Rattus norvegicus [19] = assay: Recovery of Vec-induced neuromuscular block in Sprague-Dawley rat assessed as […] ratio (TOFr) >= 90% by measuring recovery time at 25 mg/kg, iv (reference value: 525 seconds); type: functional
[20] = Therapeutic index, ratio of toxicity in iv dosed Sprague-Dawley rat assessed as maximum tolerated dose to recovery of CisA-induced neuromuscular block in Sprague-Dawley rat assessed as […] ratio (TOFr) by measuring recovery time at 80 to 100 mg/kg, iv; type: organism-based; conditions: in vivo, dose 80-100 mg/kg, read-out: TI
[21] = system: Midazolium-based-macrocycle; assay: Binding affinity to Midazolium-based-macrocycle by Competition UV-Vis titration method
Rattus norvegicus [22] = assay: Recovery of CisA-induced neuromuscular block in Sprague-Dawley rat assessed as […] ratio (TOFr) >= 90% by measuring recovery time at 150 mg/kg, iv (reference value: 784 seconds); type: functional
[23] = Toxicity in human whole blood assessed as clotting indices measured at 1 mg/ml; type: tissue-based
[24] = Toxicity in Sprague-Dawley rat assessed as body weight loss measured at 2000 mg/kg, iv upto 14 days; type: organism-based; conditions: in vivo, 336 h, time < 14 day
[25] = Hemolytic activity in human erythrocytes assessed as hemolysis at 0.51 to 32.8 mg/ml; type: toxicity, cell-based, Erythrocyte; conditions: dose 0.51-32.8 mg/ml, read-out: Activity
[26] = Hemolytic activity in Sprague-Dawley rat erythrocytes assessed as hemolysis at 0.51 to 32.8 mg/ml; type: toxicity, cell-based, Erythrocyte; conditions: dose 0.51-32.8 mg/ml, read-out: Activity

C[C@]12N3Cc4c(c(OCCCS(=O)(=O)[O-])c5c(c4OCCCS(=O)(=O)[O-])CCC5)CN1C(=O)N1CN4C(=O)N5CN6C(=O)N7CN8C(=O)N9Cc%10c(c(OCCCS(=O)(=O)[O-])c%11c(c%10OCCCS(=O)(=O)[O-])CCC%11)CN%10C(=O)N(CN%11C(=O)N(CN%12C(=O)N(CN(C3=O)[C@]12C)[C@@H]4[C@H]%125)[C@@H]6[C@H]%117)[C@]8(C)[C@@]9%10C.[Na+].[Na+].[Na+].[Na+]
Activity [1]: Non-toxic | selectivity ratio [2]: 60 | Activity [3]: Non-toxic | viability at 25 h, 0.5 mg/ml [4]: 80% | Activity [5]: Non-toxic | Time (Rattus norvegicus [6]): 34 s | Time (Rattus norvegicus [7]): 15 s | Ka (Cisatracurium): 0.088 10^7/M | Ka (Proflavine): 29.6 10^7/M | Ka [8]: 0.043 10^7/M | Activity [9]: Non-toxic | Ka (Pancuronium): 1.22 10^7/M | solubility [10]: 1000 mg/mL | IC50 at 25 h [11]: > 1000 µg/mL | Activity [12]: Non-toxic | Time (Rattus norvegicus [13]): 27 s | Ka (Rocuronium): 20.1 10^7/M | Time (Rattus norvegicus [14]): 12 s | Ka (Rhodamine 6G): 0.1 10^7/M | MTD [15]: 500 mg/kg | Activity [16]: Non-toxic | Time (Rattus norvegicus [17]): 20 s | Time (Rattus norvegicus [18]): 24 s | Ka (Vecuronium): 21 10^7/M | Time (Rattus norvegicus [19]): 15 s | selectivity ratio [20]: 18.8 | Ka [21]: 339 10^7/M | Time (Rattus norvegicus [22]): 24 s | Activity [23]: Non-toxic | Activity [24]: Non-toxic | hemolysis [25]: < 5% | hemolysis [26]: < 5%
